Data set [1] has as its system anti-EBNA antibodies. The data set is described as follows: ELISA with polypeptide as solid phase antigen, detecting anti-polypeptide antibodies in sera. It is filed as binding, human. Particulars: for Average titer of Progressive Systemic Schlerosis (PSS) patients to polypeptide compared with normals: high and low serum dilutions; for Reaction of VCA- sera with polypeptide: panel of 19 VCA- sera; for Reactivity of sera of EBV non-immune donors to polypeptide: panel of 27 EBV non-immune (VCA-) donors; for Number of 91 anti-EBNA positive (ACIF) sera positive against polypeptide: sera at 1:20 dilution; for Antibodies binding to polypeptide before and after EBV-induced infectious mononucleosis: sera of two subjects; for Reaction of sera of clinically normal VCA+ individuals with polypeptide: two serum dilutions. As for the experimental part:
A solution containing a substrate for the enzyme label such as hydrogen peroxide for peroxidase and a color-forming dye precursor such as o-phenylenediamine, or p-nitrophenyl phosphate for alkaline phosphatase is thereafter admixed with the solid phase.
(§1) Anti-peptide antibody binding and inhibition studies were carried out by an enzyme-linked immunosorbent assay (ELISA) as described below.
(§2) Briefly, microtiter wells (Costar, #3590, Cambridge, Mass.) were coated with individual polypeptides as antigens by adding 100 microliters (ul) of BBS [10 millimoler (mM) sodium borate (pH 8.3), 150 mM NaCl] containing polypeptide at a concentration of 10 micrograms per milliliter (ug/ml). Contact between the wells and antigen-containing solution was maintained for a predetermined time, typically 15 minutes, and at 20 degrees C., to form an antigen-coated solid phase. The solid and liquid phases were separated and the wells were washed three times with BBS.
Non-specific binding sites were blocked by admixing 200 microliters of 1% bovine serum albumin (BSA) in each well to form another solid-liquid phase admixture, and maintaining that solid-liquid phase admixture for 30 minutes, at 20 degrees C. The phases were separated and excess, unbound BSA was removed by washinq three times with BBS.
[…] Contact between the diluted sera and the antigen-coated solid phase was maintained for a predetermined time such as 1 hour, and at 20 degrees C., for an immunoreactant to form. The solid and liquid phases were separated, and the solid phase; i.e., antigen-coated, immunoreactant-containing wells, was then washed three times with BBS.
The antibodies in human sera that immunoreacted with an adsored polypeptide were detected using an indicating means comprising alkaline phosphatase-conjugated goat anti-human Ig antibody (Tago, Burlington, CA). The antibodies in rabbit sera that immunoreacted with an adsorbed polypeptide were detected using an indicating means comprising alkaline phosphatase-conjugated goat anti-rabbit Ig antibody (Kirkegard & Perry Laboratories, Inc., Gaithersburg, Md.). In either instance, 100 microliters of the indicating antibody diluted 1:300 in BBS were added per well to form a further solid-liquid phase composition. This solidliquid phase composition was maintained for a predetermined time, one hour, for the formation of a reaction product between the human antibodies bound to the solid phase and the indicating means, and at 20 degrees C.
(An ELISA detects its analyte on a solid surface through an enzyme-linked reagent.)

Data set [2] can be described thus: Circular dichroism spectroscopy of polypeptides in phosphate buffered saline. It is filed as physicochemical. The conditions noted are these: 1 mg/ml. As for the experimental part:
The conformational properties of the polypeptides were investigated to elucidate any secondary structure that might be necessary for polypeptide immunoreaction with human anti-EBNA antibodies. The polypeptides were dissolved at a concentration of 1 mg/ml in phosphate-buffered saline (PBS). Spectra were taken using 1 ml samples in a Cary 61 spectropolarimeter (Cary Instruments, Applied Physics Corp., Monrovia, Calif.) interfaced and automated with a Digital Equipment Corporation 11/02 computer (Digital Equipment Corporation, Maynard, Mass.).
On the technique in general: CD spectra are sensitive to the conformation of chiral molecules.

The subject of data set [3] is EBNA. The data set can be described thus: Immunoblotting of whole cell extracts with rabbit anti-polypeptide antisera. It is filed as binding, Epstein-Barr virus. Particulars: for Inhibition of recognition of EBNA by anti-P62 serum: anti-P62 serum 1:10 incubated with 40 ug/ml polypeptide for one hour. As for the experimental part: Exemplary receptor molecules containing antibody combining sites of this invention raised in rabbits to the polypeptides shown in Table 1 were studied using the immunoblotting procedures of Towbin, et. al., Proc. Natl. Acad. Sci., U.S.A., 76:4350-4354 (1979) and Billings, et. al., Proc. Natl. Acad. Sci., U.S.A., 80:7104-7108 (1983). Further details are provided in the Materials and Methods section (II).
Extracts of EBNA producing and non-producing (control) cells were prepared to determine if receptor molecules of this invention were useful for diagnosing EBNA expression. Cells from cultures described hereinabove were washed in phosphate-buffered saline (PBS; 150 mM NaCl, 10 mM sodium phosphate, pH 7.4) containing 0.2 mM phenylmethylsulfonyl fluoride, swollen for 5 minutes in reticulocyte standard buffer (RSB; 10 mM NaCl, 10 mM Tris-HCl, pH 7.4, 1.5 mM MgCl2, 0.2 mM phenylmethylsulfonyl fluoride), and lysed by sonication in 3-5 volumes of RBS adjusted to 0.2-0.35 molar (M) NaCl. After 30 minutes on ice, the sonicate was centrifuged at 10,000×g for 15 minutes to remove cellular debris.
Cell extracts obtained above were assayed for EBNA using human sera known to contain anti-EBNA antibodies or exemplary receptor molecules of this invention. Tne extracts were either concentrated by precipitation with 2 volumes of ethanol at -20 degrees C. for about 18 hours, and were then dissolved in sample buffer [SB; 10% glycerol, 2% 2-mercaptoethanol, 1% sodium dodecyl sulfate (SDS), 0.002% bromphenol blue, 40 mM Tris-HCl (pH 7.4)] or diluted 1:6 in sample buffer for SDS-polyacrylamide gel electrophoresis (SDS-PAGE). 7.5% Polyacrylamide gels were cast and run according to the procedure of Laemmli, Nature, […] (1970), applying 50 to 200 micorgrams of total protein per lane. […]
Anti-peptide antibodies bound to EBNA protein were detected by reacting the blots with an indicating means. […]

Data set [4] deals with rabbit anti-polypeptide antibody to polypeptide P62. The data set is described as follows: Competition ELISA: rabbit anti-polypeptide P62 antibody binding to solid phase P62. Particulars: antibody first incubated with competing polypeptide. As for the experimental part:
as §1, §2
Non-specific binding sites were blocked by admixing 200 microliters of 1% bovine serum albumin (BSA) in each well to form another solid-liquid phase admixture, and maintaining that solid-liquid phase admixture for 30 minutes, at 20 degrees C. […]
The antibodies in human sera that immunoreacted with an adsored polypeptide were detected using an indicating means comprising alkaline phosphatase-conjugated goat anti-human Ig antibody (Tago, Burlington, CA). The antibodies in rabbit sera that immunoreacted with an adsorbed polypeptide were detected using an indicating means comprising alkaline phosphatase-conjugated goat anti-rabbit Ig antibody (Kirkegard & Perry Laboratories, Inc., Gaithersburg, Md.). […]

[5] abbreviates: serum MV post-mononucleosis, dilution 1:20.
Where [6] appears, read: serum MV pre-mononucleosis, dilution 1:20.
Where [7] appears, read: serum SB post-mononucleosis, dilution 1:20.
Setting [8] is: serum SB pre-mononucleosis, dilution 1:20.
The mark [9] stands for this setting: serum VCA + Normal 1, dilution 1:20.
Where [10] appears, read: serum VCA + Normal 2, dilution 1:20.

The structures appear in SMILES notation. Entries after “also recorded” stand apart in the source; their conditions may differ. Residues, ends and D or L forms follow the SMILES beside them.

Consider `C[C@H](NC(=O)CNC(=O)CNC(=O)[C@H](C)NC(=O)CNC(=O)[C@H](C)NC(=O)CNC(=O)CNC(=O)CN)C(=O)NCC(=O)N[C@@H](C)C(=O)NCC(=O)NCC(=O)NCC(=O)NCC(=O)N[C@@H](CCCNC(=N)N)C(=O)O` [Polypeptide P60, H--Gly--Gly--Gly--Ala--Gly--Ala--Gly--Gly--Ala--Gly--Ala--Gly--Gly--Gly--Gly--Arg--OH] (H-GGGAGAGGAGAGGGGR-OH), for which the “OD405 × 10^3 obtained with patient antibodies to polypeptide, average ± one standard deviation” value in data set [1] (VCA- Normals (n = 27), dilution 1:20) is 45 ± 18 OD405 × 10^3. Moreover, in data set [1], the “Average titer of Progressive Systemic Schlerosis (PSS) patients to polypeptide compared with normals” value is “relatively higher average titer”, the “Reaction of VCA- sera with polypeptide” value is given as “None of the VCA- sera were found to react positively”, the “Reactivity of sera of EBV non-immune donors to polypeptide” value is “None of tne sera displayed significant reactivity” and the “Number of 91 anti-EBNA positive (ACIF) sera positive against polypeptide” value came out at 91. In addition, in data set [1], the “Antibodies binding to polypeptide before and after EBV-induced infectious mononucleosis” value (“Antibodies binding” for short) was “absent before infection, but appeared afterward”; the “Reaction of sera of clinically normal VCA+ individuals with polypeptide” value is “all of the VCA+ indiviuals were positive”. For the same molecule, the “OD405 × 10^3 obtained with patient antibodies to polypeptide” value in data set [1] (setting [5]) is recorded as 162 OD405 × 10^3. Moreover, the “OD405 × 10^3 obtained with patient antibodies to polypeptide” value in data set [1] (setting [6]) was found to be 72 OD405 × 10^3. The “OD405 × 10^3 obtained with patient antibodies to polypeptide” value in data set [1] (setting [7]) worked out at 115 OD405 × 10^3. Also, in data set [1] (setting [8]), the “OD405 × 10^3 obtained with patient antibodies to polypeptide” value is reported as 51 OD405 × 10^3. For the same molecule, the “OD405 × 10^3 obtained with patient antibodies to polypeptide” value in data set [1] (setting [9]) worked out at 154 OD405 × 10^3. Besides, the “OD405 × 10^3 obtained with patient antibodies to polypeptide” value in data set [1] (setting [10]) is recorded as 145 OD405 × 10^3. For the same molecule, the “Conformation indicated by circular dichroism spectrum” value in data set [2] is recorded as “very similar spectra”. The “Inhibition of recognition of EBNA by anti-P60 serum” value in data set [3] (anti-P60 serum 1:50 incubated with 40 ug/ml polypeptide for one hour) was “innibited”. The “Inhibition of recognition of EBNA by anti-P62 serum” value in data set [3] is recorded as “inhibited”.
Consider `C[C@H](N)C(=O)NCC(=O)N[C@@H](C)C(=O)NCC(=O)NCC(=O)NCC(=O)N[C@@H](C)C(=O)NCC(=O)NCC(=O)N[C@@H](C)C(=O)NCC(=O)N[C@@H](C)C(=O)NCC(=O)NCC(=O)NCC(=O)N[C@@H](C)C(=O)NCC(=O)NCC(=O)N[C@@H](C)C(=O)NCC(=O)O` [Polypeptide P62, H-Ala--Gly--Ala--Gly--Gly--Gly--Ala--Gly--Gly--Ala--Gly--Ala--Gly--Gly--Gly--Ala--Gly--Gly--Ala--Gly--OH] (H-AGAGGGAGGAGAGGGAGGAG-OH), for which, in data set [1], the “Average titer of Progressive Systemic Schlerosis (PSS) patients to polypeptide compared with normals” value is “relatively higher average titer”. In addition, the “Time course of anti-P62 antibodies after onset of infectious mononucleosis versus ACIF anti-EBNA titer” value in data set [1] (one-half of 8 students (e.g. patient 15)) is recorded as “rose in parallel with the corresponding anti-EBNA titer”. Further, the “Time of detection of antibodies against polypeptide after onset of infectious mononucleosis” value in data set [1] (other half of 8 students (e.g. patients 14 and 2)) is “detected in the first month after the onset of symptoms”. Also, in data set [1], the “Reaction of VCA- sera with polypeptide” value is reported as “None of the VCA- sera were found to react positively”. In addition, in data set [1], the “Reactivity of sera of EBV non-immune donors to polypeptide” value was “None of tne sera displayed significant reactivity”. The “Number of 91 anti-EBNA positive (ACIF) sera positive against polypeptide” value in data set [1] was 91. Also, the “Number of 91 EBNA positive sera immunoreacting with polypeptide” value in data set [1] (sera at 1:320 dilution) is 83. Also, the “Antibodies binding” value in data set [1] is on record as “absent before infection, but appeared afterward”. The “OD405 × 10^3 obtained with patient antibodies to polypeptide” value came to 631 OD405 × 10^3 in data set [1] (setting [5]); 77 OD405 × 10^3 in data set [1] (setting [6]); 514 OD405 × 10^3 in data set [1] (setting [7]); 13 OD405 × 10^3 in data set [1] (setting [8]); 958 OD405 × 10^3 in data set [1] (setting [9]); 819 OD405 × 10^3 in data set [1] (setting [10]). Further, in data set [1], the “Reaction of sera of clinically normal VCA+ individuals with polypeptide” value is on record as “all of the VCA+ indiviuals were positive”. The “Conformation indicated by circular dichroism spectrum” value in data set [2] is “relatively stable secondary structure”. In data set [3], the “Inhibition of recognition of EBNA by anti-P62 serum” value is “inhibited”.
Turning to `CSCC[C@H](NC(=O)[C@@H]1CCCN1C(=O)[C@H](CCCNC(=N)N)NC(=O)[C@H](CCCCN)NC(=O)[C@H](CCC(=O)O)NC(=O)CNC(=O)[C@H](CCCNC(=N)N)NC(=O)CNC(=O)[C@H](CCCNC(=N)N)NC(=O)CNC(=O)[C@H](CCCNC(=N)N)NC(=O)CNC(=O)[C@H](CCCNC(=N)N)NC(=O)[C@H](C)NC(=O)[C@@H](N)CCCNC(=N)N)C(=O)O` [Polypeptide P89, H--Arg--Ala--Arg--Gly--Arg--Gly--Arg--Gly--Arg--Gly--Glu--Lys--Arg--Pro--Met--OH] (H-RARGRGRGRGEKRPM-OH), the “Inhibition of binding of anti-polypeptide P62 to solid phase polypeptide P62” value in data set [4] was “did not significantly crossreact; also recorded: did not inhibit”. The “Antibodies binding” value in data set [1] is recorded as “no antibodies were produced”. Further, the “OD405 × 10^3 obtained with patient antibodies to polypeptide” value is listed as 25 OD405 × 10^3 in data set [1] (setting [5]); 29 OD405 × 10^3 in data set [1] (setting [6]); 23 OD405 × 10^3 in data set [1] (setting [7]); 9 OD405 × 10^3 in data set [1] (setting [8]); 23 OD405 × 10^3 in data set [1] (setting [9]); 16 OD405 × 10^3 in data set [1] (setting [10]).
